# In patent publication US20060040338A1, “Pharmacological profiling of drugs with cell-based assays” (Odyssey Thera, Inc., priority 2004, published 2006):
# Entries after “also recorded” stand apart in the source; their conditions may differ.
# Key:
# Format in all cases: cell-based, human
# [1] = test system: phospho-Hsp27; test: phospho-Hsp27 immunofluorescence high-content assay; conditions: HEK293T cells; for effect on EGF-induced Hsp27 phosphorylation: drug 90 min (PD98059 20 micromolar, SB203580 25 micromolar), 100 ng/ml hEGF during last 5 min; for Hsp27 phosphorylation (p38 pathway), agent alone: anisomycin 10 micrograms/ml 10 min, hEGF 100 ng/ml 5 min
# Experimental: (§1) We assessed the effects of the above-mentioned compounds on the three pathways and used the results to construct pharmacological profiles for the agents. Specifically we assessed changes in the phosphorylation status of the pathway ‘sentinels’ by constructing high-content, immunofluorescence assays using phospho-specific antibodies targeted to the downstream proteins in the pathways of interest. Human cells (HEK293) were treated with drugs and the phosphorylation status of the three downstream proteins was assessed in the absence or presence of epidermal growth factor (EGF). Cells were then fixed and probed with antisera generated against the phosphorylated forms of CREB (S133), ERK1/2 (phospho T*EY*), or phospho Hsp27 (S78/S82). The ERK1/2 antibodies specifically recognize the MAPK/ERK1 and MAPK/ERK2 protein kinases only when they are phosphorylated on Threonine 202 and Tyrosine 204 in the activation loop. […] Changes in the level and sub-cellular localization of a phosphorylated protein following treatment with a drug would indicate a functional connection between the drug and the pathway of interest.
# (§2) Details of the methods used are as follows. HEK293T cells were seeded in black-walled, poly-lysine coated 96-well plates (Greiner) at a density of 30,000/well. After 24 hours, cells in duplicate wells were treated with combinations of different drugs and stimulus as follows: (a) 2 micromolar isoproterenol or 1 micromolar forskolin for 15 min.; (b) 25 micromolar SB203580 or vehicle (DMSO) for 90 minutes and 10 micrograms/ml anisomycin added to the cells during the last 10 min.; (c) 20 microolar PD98059, 25 micromolar SB203580, 5 microM 17-AAG or vehicle alone for 90 min. (d) as for (c), but with 100 ng/ml hEGF added to the cells during the last 5 min of drug treatment. The drugs were purchased from Calbiochem and hEGF was from Roche. Four sets of cells treated as described were prepared. The cells were rinsed once with PBS and fixed with 4% formaldehyde for 10 min. The cells were subsequently permeabilized with 0.25% Triton X-100 in PBS and incubated with 3% BSA for 30 min to block non-specific antibody binding. Each of the 4 sets of identically treated cells were then incubated with rabbit antibodies against phosphorylated CREB (Ser133), Hsp27 (Ser82), or pERK (T202/Y204) (Cell Signaling Technology, Inc.). Control wells were incubated with bovine serum albumin (BSA) in PBS. The cells were rinsed with PBS and incubated with Alexa488 conjugated goat anti-rabbit secondary antibody (Molecular Probes). Cell nuclei were stained with Hoechst33342 (Molecular Probes).
# (§3) Images were acquired using Discovery-1 High Content Imaging System (Molecular Devices). Background fluorescence due to nonspecific binding by the secondary antibody was established with the use of cells that were incubated with BSA/PBS and without primary antibodies.
# (§4) Raw images in 16-bit grayscale TIFF format were analyzed using ImageJ API/library (http://rsb.info.nih.gov/ij/, NIH, MD). First, images from the fluorescence channels (Hoechst and Alexa 488) were normalized using the ImageJ built-in rolling-ball algorithm [S. R. Sternberg, Biomedical image processing. Computer, 16(1), January 1983]. Next a threshold was established to separate the foreground from background. An iterative algorithm based on Particle Analyzer from ImageJ is applied to the thresholded Hoechst channel image (HI) to obtain the total cell count. The nuclear region of a cell (nuclear mask) is also derived from the thresholded HI. […]
# [2] = test system: phospho-ERK; test: phospho-ERK (T202/Y204) immunofluorescence high-content assay; conditions: HEK293T cells; for effect on EGF-stimulated ERK phosphorylation: drug 90 min (PD98059 20 micromolar, SB203580 25 micromolar, 17-AAG 5 microM), 100 ng/ml hEGF during last 5 min; for ERK/MAP kinase phosphorylation, agent alone: isoproterenol 2 micromolar or forskolin 1 micromolar 15 min, anisomycin 10 micrograms/ml 10 min, hEGF 100 ng/ml 5 min
# Experimental: as §1, §2, §3
# as §4, with “HI. The positive particle mask is generated from the thresholded Alexa 488 image (YI). To calculate the global background (gBG), a histogram was obtained from the un-thresholded Alexa signal and the pixel intensity of the lowest intensity peak was identified as gBG. The Hoechst mask and Alexa mask are overlapped to define the correlated sub-regions of the cell. All means were corrected for the corresponding gBG.” for “HI.”
# [3] = test system: phospho-CREB; test: phospho-CREB (S133) immunofluorescence high-content assay; conditions: HEK293T cells; for phosphorylation of CREB (phospho-CREB intensity), agent alone / subcellular distribution of phospho-CREB: isoproterenol 2 micromolar or forskolin 1 micromolar 15 min, anisomycin 10 micrograms/ml 10 min, relative to untreated control; for phosphorylation of CREB (phospho-CREB intensity), agent alone: hEGF 100 ng/ml 5 min
# Experimental: as §1, §2, §3
# as §4, with “HI. The positive particle mask is generated from the thresholded Alexa 488 image (YI). To calculate the global background (gBG), a histogram was obtained from the un-thresholded Alexa signal and the pixel intensity of the lowest intensity peak was identified as gBG. The Hoechst mask and Alexa mask are overlapped to define the correlated sub-regions of the cell. All means were corrected for the corresponding gBG.” for “HI.”
Molecule,effect on EGF-induced Hsp27 phosphorylation [1],effect on EGF-stimulated ERK phosphorylation [2],"effect on EGF-induced phospho-CREB ([3]; drug 90 min (PD98059 20 micromolar), 100 ng/ml hEGF during last 5 min)","Hsp27 phosphorylation (p38 pathway), agent alone [1]","ERK/MAP kinase phosphorylation, agent alone [2]","phosphorylation of CREB (phospho-CREB intensity), agent alone [3]",subcellular distribution of phospho-CREB [3],"effect on anisomycin-induced phospho-Hsp27 ([1]; SB203580 25 micromolar 90 min, 10 micrograms/ml anisomycin during last 10 min)"
COc1cccc(-c2cc(=O)c3ccccc3o2)c1N [PD98059],no effect,significantly blocked,reduced,,,,,
COc1ccc(C[C@H]2NC[C@H](O)[C@H]2OC(C)=O)cc1 [anisomycin],,,,induced,no effect,little or no effect; also recorded: no effect,little or no effect,
CC(C)NCC(O)c1ccc(O)c(O)c1 (centres unmarked) [isoproterenol],,,,,no effects,increased,predominantly nuclear pattern,
"C=CCNC1=C2C[C@@H](C)C[C@H](OC)[C@H](O)[C@@H](C)/C=C(\C)[C@H](OC(N)=O)[C@@H](OC)/C=C\C=C(/C)C(=O)NC(=CC1=O)C2=O [17-AAG, 17-allylamino-17-demethoxygeldanamycin]",,effective at reducing,,,,,,
"EGF: epidermal growth factor; hEGF from Roche, used as pathway stimulus",,,,elicited p38 pathway activation,strongly stimulated,induced,,
"C[S+]([O-])c1ccc(-c2nc(-c3ccc(F)cc3)c(-c3ccncc3)[nH]2)cc1 (centres unmarked) [SB203580, 4-(4-fluorophenyl)-2-(4-methylsulfinylphenyl)-5-(4-pyridyl)1H-imidazole]",blocked,no effect,,,,,,completely blocked
